Test results reported in patent publication US11696913B2, “Prolonged ectoparasite-controlling agent for animal” (MITSUI CHEMICALS AGRO, INC., priority 2017, dated 2023).

Tests used:
Amblyomma americanum = assay: In vitro contact test with hard ticks (Amblyomma americanum nymphs); conditions: read-out: acaricidal activity; for pest or weed control at 0.2 µg/cm2, 0.2 µg/cm2: dose 0.2 μg/cm^2, 48 h; for pest or weed control at 1 µg/cm2, 1 µg/cm2: dose 1 μg/cm^2, 48 h
Protocol: (§1) In Vitro Contact Tests with Adult Hard Ticks
(§2) In vitro contact tests with ticks were conducted with adult males and females of Rhipicephalus sanguineus, Ixodes ricinus, or Dermacentor variabilis, or nymphs of Amblyomma americanum.
(§3) For the coating of the test vials, the test substance was dissolved and diluted in acetone p.a. to the desired concentration. The solution was then homogeneously applied to the inner wall and base of a glass vial by turning and rocking on an orbital shaker until complete evaporation of the solvent. For example, with a 900 ppm solution of test substance, an area-based dose of 5 μg/cm^2 was achieved.
(§4) After the solvent was completely evaporated, 5-10 adult ticks were put in each coated test vial, which was then sealed with a perforated plastic lid and incubated in a horizontal position in the dark at room temperature and ambient humidity (Rhipicephalus sanguineus) or in a climate-controlled cabinet (Ixodes ricinus, Dermacentor variabilis, Amblyomma americanum [21° C., 85% rel. hum.]). Acaricidal activity against the respective tick species was determined after 48 h. For this, ticks were collected to the base of the test vial by gentle knocking, and test vials were then incubated on a hotplate at 45-50° C. for no longer than 5 min. Ticks which remained motionless on the base of the test vial or moved uncoordinated without deliberately climbing up to avoid the heat were considered dead or moribund, respectively.
(§5) A substance was judged to have good acaricidal activity against the respective tick species when at least 80% of ticks were found dead or moribund at a dose of the substance of g/cm^2. An acaricidal activity of 100% means all ticks were dead or moribund. An acaricidal activity of 0% means none of the ticks was found dead or moribund.

Ixodes ricinus = assay: In vitro contact test with adult hard ticks (Ixodes ricinus); conditions: read-out: acaricidal activity; for pest or weed control at 0.2 µg/cm2, 0.2 µg/cm2: dose 0.2 μg/cm^2, 48 h; for pest or weed control at 1 µg/cm2, 1 µg/cm2: dose 1 μg/cm^2, 48 h; for pest or weed control at 5 µg/cm2, 5 µg/cm2: dose 5 μg/cm^2, 48 h
Protocol: as §1, §2, §3, §4, §5

Dermacentor variabilis = assay: In vitro contact test with adult hard ticks (Dermacentor variabilis); conditions: read-out: acaricidal activity; for pest or weed control at 0.2 µg/cm2, 0.2 µg/cm2: dose 0.2 μg/cm^2, 48 h; for pest or weed control at 1 µg/cm2, 1 µg/cm2: dose 1 μg/cm^2, 48 h
Protocol: as §1, §2, §3, §4, §5

Rhipicephalus sanguineus = assay: In vitro contact test with adult hard ticks (Rhipicephalus sanguineus); conditions: read-out: acaricidal activity; for pest or weed control at 0.04 µg/cm2, 0.04 µg/cm2: dose 0.04 μg/cm^2, 48 h; for pest or weed control at 0.2 µg/cm2, 0.2 µg/cm2: dose 0.2 μg/cm^2, 48 h; for pest or weed control at 1 µg/cm2, 1 µg/cm2: dose 1 μg/cm^2, 48 h
Protocol: as §1, §2, §3, §4, §5

Ctenocephalides felis [1] = assay: In vitro contact test with fleas; conditions: read-out: insecticidal activity; for pest or weed control at 0.04 µg/cm2, 0.04 µg/cm2: dose 0.04 μg/cm^2, dead or moribund fleas after 48 h; for pest or weed control at 0.2 µg/cm2, 0.2 µg/cm2: dose 0.2 μg/cm^2, dead or moribund fleas after 48 h; for pest or weed control at 1 µg/cm2, 1 µg/cm2: dose 1 μg/cm^2, dead or moribund fleas after 48 h
Protocol: In Vitro Contact Tests with Fleas
In vitro contact tests with fleas were conducted with adult male and female cat fleas (Ctenocephalides felis).
To coat the test tubes, the test substance was dissolved and diluted in acetone p.a. to the desired concentration. The solution was then homogeneously applied to the inner wall and base of a glass tube by turning and rocking on an orbital shaker until complete evaporation of the solvent. For example, with a 900 ppm solution of test substance, an area-based dose of 5 μg/cm^2 was achieved.
Upon complete evaporation of the solvent, 5-10 adult cat fleas (Ctenocephalides felis) were added to each coated tube, which was then sealed with a perforated plastic lid and incubated in a horizontal position at room temperature and ambient humidity. After 48 h, insecticidal activity against fleas was determined. For this, fleas were collected to the base of the tube by knocking the tube, and the tube was allowed to stand upright. Fleas which remained motionless at the base or moved in an uncoordinated manner were considered dead or moribund, respectively.
A substance was judged to have good insecticidal activity against Ctenocephalides felis when at least 80% of the fleas were found dead or moribund at a dose of the substance of μg/cm^2. 100% insecticidal activity means that all the fleas were found dead or moribund. 0% insecticidal activity means that no fleas were found dead or moribund.

[2] = system: Rhipicephalus (Boophilus) microplus; assay: In vitro injection test with Rhipicephalus (Boophilus) microplus (BOOPMI Inj); conditions: 168 h, laid fertile eggs after 7 days, read-out: acaricidal activity; for pest or weed control at 0.00016 mg: dose 0.16 μg/animal injected; for pest or weed control at 0.0008 mg: dose 0.8 μg/animal injected; for pest or weed control at 32 ng: dose 0.032 μg/animal injected
Protocol: In Vitro Injection Test with Rhipicephalus (Boophilus) Microplus (BOOPMI Inj)
To produce an appropriate mixture for injection, the test substance was dissolved and diluted in dimethyl sulphoxide to the desired concentration. 1 μl of the test mixture was injected into the abdomen of each of 5 engorged adult female cattle ticks (Rhipicephalus (Boophilus) microplus). The ticks were transferred into petri dishes and maintained in a climate-controlled room [28° C., 85% rel. hum.].
Acaricidal activity against cattle ticks was assessed after 7 days by assessment of laid fertile eggs. […] An acaricidal activity of 100% means that none of the ticks laid eggs or laid eggs were infertile; 0% means that the ticks laid eggs, and all the eggs were fertile.

Ctenocephalides felis [3] = assay: Ctenocephalides felis in-vitro feeding test with fleas (CTECFE oral); conditions: 48 hours, read-out: insecticidal feeding activity; for pest or weed control at 0.0064 ppm: dose 0.0064 ppm in citrated cattle blood; for pest or weed control at 0.032 ppm: dose 0.032 ppm in citrated cattle blood; for pest or weed control at 0.16 ppm: dose 0.16 ppm in citrated cattle blood; for pest or weed control at 0.8 ppm: dose 0.8 ppm in citrated cattle blood; for pest or weed control at 4 ppm: dose 4 ppm in citrated cattle blood
Protocol: Ctenocephalides felis In-Vitro Feeding Test with Fleas (CTECFE Oral)
To prepare a test blood mixture for feeding fleas, the test substance was dissolved in dimethyl sulphoxide and diluted with citrated cattle blood to the desired concentration.
To assemble the test set-up, about 20 unfed adult male and female cat fleas
(Ctenocephalides felis) were placed in a chamber which was closed at the top and bottom with gauze. A metal cylinder was sealed at one end with parafilm membrane, placed with the sealed base onto the chamber, and filled with the test blood mixture, which could be imbibed by the fleas through the parafilm membrane. The assembled test set-up was maintained at about 37° C. After 48 hours, the insecticidal feeding activity against fleas was determined. 100% means that all of the fleas were killed; 0% means that none of the fleas was killed.

SMILES | pest or weed control at 0.2 µg/cm2, 0.2 µg/cm2 (Amblyomma americanum) [%] | pest or weed control at 1 µg/cm2, 1 µg/cm2 (Amblyomma americanum) [%] | pest or weed control at 0.2 µg/cm2, 0.2 µg/cm2 (Ixodes ricinus) [%] | pest or weed control at 1 µg/cm2, 1 µg/cm2 (Ixodes ricinus) [%] | pest or weed control at 5 µg/cm2, 5 µg/cm2 (Ixodes ricinus) [%] | pest or weed control at 0.2 µg/cm2, 0.2 µg/cm2 (Dermacentor variabilis) [%] | pest or weed control at 1 µg/cm2, 1 µg/cm2 (Dermacentor variabilis) [%] | pest or weed control at 0.04 µg/cm2, 0.04 µg/cm2 (Rhipicephalus sanguineus) [%] | pest or weed control at 0.2 µg/cm2, 0.2 µg/cm2 (Rhipicephalus sanguineus) [%] | pest or weed control at 1 µg/cm2, 1 µg/cm2 (Rhipicephalus sanguineus) [%] | pest or weed control at 0.04 µg/cm2, 0.04 µg/cm2 (Ctenocephalides felis [1]) [%] | pest or weed control at 0.2 µg/cm2, 0.2 µg/cm2 (Ctenocephalides felis [1]) [%] | pest or weed control at 1 µg/cm2, 1 µg/cm2 (Ctenocephalides felis [1]) [%] | pest or weed control at 0.00016 mg [2] [%] | pest or weed control at 0.0008 mg [2] [%] | pest or weed control at 0.0064 ppm (Ctenocephalides felis [3]) [%] | pest or weed control at 0.032 ppm (Ctenocephalides felis [3]) [%] | pest or weed control at 0.16 ppm (Ctenocephalides felis [3]) [%] | pest or weed control at 0.8 ppm (Ctenocephalides felis [3]) [%] | pest or weed control at 4 ppm (Ctenocephalides felis [3]) [%] | also measured
N#Cc1ccc(C(=O)Nc2cccc(C(=O)Nc3c(Br)cc(C(F)(C(F)(F)F)C(F)(F)F)cc3C(F)(F)F)c2F)cc1 [Compound 16] | 90 | 90 | 90 | 90 | 90 | 90 | 90 | 90 | 90 | 90 | 95 | 95 | 95 | 100 | 100 | 95 | 95 | 95 | 95 | 95 | –
O=C(Nc1cccc(C(=O)Nc2c(Br)cc(C(F)(C(F)(F)F)C(F)(F)F)cc2C(F)(F)F)c1F)c1ccc(F)cc1 [Compound 29] | 90 | 90 | – | – | 90 | 90 | 90 | 90 | 90 | 90 | – | 95 | 95 | – | – | – | – | – | 95 | 95 | –
O=C(Nc1cccc(C(=O)Nc2c(Br)cc(C(F)(C(F)(F)F)C(F)(F)C(F)(F)F)cc2C(F)(F)F)c1F)c1ccc(F)cc1 (stereo not shown) [Compound 36] | 90 | 90 | 90 | 90 | 90 | 90 | 90 | 90 | 90 | 90 | 95 | 95 | 95 | 100 | 100 | 95 | – | 95 | 95 | 95 | pest or weed control at 32 ng [2]: 100%
O=C(Nc1cccc(C(=O)Nc2c(Br)cc(C(F)(C(F)(F)F)C(F)(F)F)cc2OC(F)(F)F)c1)c1ccc(F)cc1 [Compound 12] | 90 | 90 | 90 | 90 | 90 | – | – | 90 | 90 | 90 | – | 95 | 95 | 100 | 100 | – | – | – | 95 | 95 | pest or weed control at 0.04 µg/cm2, 0.04 µg/cm2 (Amblyomma americanum; dose 0.04 μg/cm^2, 48 h): 90%
N#Cc1ccc(C(=O)Nc2cccc(C(=O)Nc3c(Br)cc(C(F)(C(F)(F)F)C(F)(F)F)cc3OC(F)(F)F)c2)cc1 [Compound 9] | – | 90 | 90 | 90 | 90 | 90 | 90 | – | 90 | – | – | 95 | 95 | 100 | 100 | – | – | – | 95 | 95 | –
N#Cc1ccc(C(=O)Nc2cccc(C(=O)Nc3c(I)cc(C(F)(C(F)(F)F)C(F)(F)C(F)(F)F)cc3C(F)(F)F)c2F)cc1 (stereo not shown) [Compound 34] | 90 | 90 | – | 90 | 90 | 90 | 90 | – | 90 | 90 | – | 95 | 95 | 100 | 100 | 95 | 95 | 95 | 95 | 95 | pest or weed control at 0.04 µg/cm2, 0.04 µg/cm2 (Dermacentor variabilis; dose 0.04 μg/cm^2, 48 h): 90%; pest or weed control at 6.4 ng ([2]; dose 0.0064 μg/animal injected): 100%; pest or weed control at 32 ng [2]: 100%
